Assay results: patent US20230134760A1, “CAR AND NRF2 DUAL ACTIVATOR AGENTS FOR CYCLOPHOSPHAMIDE-BASED AND DOXORUBICIN-BASED TREATMENTS OF CANCER” (priority 2020, published 2023)

Legend:
HO-1 = HO-1 expression in MDA-MB-231 cells; assay type: cell-based; conditions: MDA-MB-231, 10 μM, 24 hours
Protocol: Immortalized triple negative breast cancer cell lines MDA-MB-231 and BT549 were obtained from ATCC (Rockville, Md.). Additionally, the h9c2 cell line was purchased from ATCC (Rockville, Md.). […] Human iPSC-derived cardiomyocytes were maintained in Mtesr plus and supplemented according to protocol. These cells were treated for 2 hrs or an overnight as indicated. Following a 2 hr pretreatment, cells were co-treated with DOX at indicated concentrations for 6 or 22 hours. Following the overnight treatments, RNA or protein was isolated. HPH were seeded in collagen-coated 24 well plates and pretreated for 24 hrs. BT549 were seeded on inverted coverslips. After a 24 hr pretreatment, hepatocytes were co-administered as indicated and coverslips were inserted. The cell lines were used for less than 60 passages. After 24 h treatment, HPH, BT549, MDA-MB-231, and H9c2 cells were washed and a phenol-chloroform extraction was used to isolate total RNA with the TRIzol reagent (ThermoFisher, Rockford, Ill.). Reverse transcription was performed on extracted RNA (1 μg) to produce cDNA using the High Capacity cDNA Archive kit according to manufacturer's instructions (Applied Biosystems, Foster, Calif.). […] Quantification of expression changes was done by the 2^ΔΔCt method, normalizing to GAPDH as the housekeeping gene and determining the fold change compared to control values (n=3). […]

BT549 cells [1] = experiment: Cell viability assay, DOX-induced toxicity in BT549 cells; assay type: cell-based; conditions: BT549, DOX 2.5 μM
Protocol: (§1) Immortalized triple negative breast cancer cell lines MDA-MB-231 and BT549 were obtained from ATCC (Rockville, Md.). Additionally, the h9c2 cell line was purchased from ATCC (Rockville, Md.). […] Human iPSC-derived cardiomyocytes were maintained in Mtesr plus and supplemented according to protocol. These cells were treated for 2 hrs or an overnight as indicated. Following a 2 hr pretreatment, cells were co-treated with DOX at indicated concentrations for 6 or 22 hours. Following the overnight treatments, RNA or protein was isolated. HPH were seeded in collagen-coated 24 well plates and pretreated for 24 hrs. BT549 were seeded on inverted coverslips. After a 24 hr pretreatment, hepatocytes were co-administered as indicated and coverslips were inserted. The cell lines were used for less than 60 passages. H9c2 cells were seeded 0.8×10^5 in 24-well plates. […] A Cell Counting Kit-8 (Enzo) assay was carried out. Cell viability was described as a percent of vehicle control (0.1% DMSO).

hCAR or Nrf2 = experiment: all curve and EC50 curve of selected compounds (FIG. 22-35); assay type: cell-based; set-up: key to Emax: fold activation; firefly luciferase normalized to Renilla; conditions: figure legend values
Protocol: Cell lysates were assayed for luciferase activity and normalized against the activity of the Renilla luciferase using a Dual-Luciferase Kit (Promega). […] Compound 2, DL7076, was selected for further evaluation based on its effects in activating hCAR and Nrf2 using the HepG2 cell reporter assay (FIGS. 37a-37c).

BT549 cells [2] = experiment: Oxidative stress imaging (DFDA) in BT549 cells; assay type: cell-based; conditions: BT549, DL7076 5 μM + DOX
BT549 cells [3] = experiment: Multi-organ co-culture (BT549/HPH/H9c2), BT549 viability; assay type: cell-based; conditions: DL7076 10 μM
Protocol: (§2) Additionally, HPH were cultured in collagen-coated 6-well plates and pre-treated as described in the previous co-culture system. BT549 and H9c2 cells were plated on similar modified coverslips 0.8×10^5 cells and allowed to attach for 24 hours during hepatocyte pre-treatment. […] Following pre-treatment, BT549 coverslips were inserted adjacent to H9c2 coverslips over the sandwich cultured HPH as depicted in FIG. 43a. […] Both BT549 and H9c2 cells were harvested at indicated time points and assess for viability, apoptosis, and DNA damage as detailed further. H9c2 cells were seeded 0.8×10^5 in 24-well plates. […] A Cell Counting Kit-8 (Enzo) assay was carried out. Cell viability was described as a percent of vehicle control (0.1% DMSO).

MDA-MB-231 cells = experiment: Oxidative stress imaging (DFDA) in MDA-MB-231 cells; assay type: cell-based; conditions: MDA-MB-231, DL7076 5 μM + DOX
[4] = tested on: iPSC-derived cardiomyocytes; experiment: Cell viability, DOX-induced cytotoxicity in iPSC-derived cardiomyocytes; assay type: cell-based, human; conditions: co-administration with DOX
Protocol: as §1

H9c2 cells = experiment: Multi-organ co-culture (BT549/HPH/H9c2), H9c2 viability; assay type: cell-based, rat; conditions: DL7076 10 μM
Protocol: as §2

Q: What does the source list for `O=C(NCCN=C=S)c1c(-c2ccc3ccccc3c2)nc2sccn12` [DL7076, N-(2-Isothiocyanatoethyl)-6-(naphthalen-2-yl)imidazo[2,1-b]thiazole-5-carboxamide]?
A: HO-1 induction (HO-1): 1.4 fold; reversal of DOX-induced toxicity (viability) (BT549 cells [1]): this efficient reversal was not shown; Emax (hCAR or Nrf2): 2.5; EC50 (hCAR or Nrf2; read-out: EC50): 3.9 µM; ROS with cotreatment (BT549 cells [2]): significant ROS without reduction; CPA/DOX cytotoxicity in BT549 cells (BT549 cells [3]): selectively enhanced CPA/DOX regimen cytotoxicity in BT549 cells; ROS with cotreatment (MDA-MB-231 cells): significant ROS without reduction; reversal of DOX-induced cytotoxicity [4]: efficiently reversed by co-administration of DL7076; H9c2 viability during CPA/DOX treatment (H9c2 cells): h9c2 cardiomyocyte viability can be protected during CPA/DOX treatment
